The values below are quoted from earlier work in patent publication US20150196488A1, “Topical Foam Composition” (priority 2009, published 2015).

The conditions of the series: alcohol, ethyl acetate, chloroform and toluene.

Consider `CO[C@H]1/C=C/O[C@@]2(C)Oc3c(C)c(O)c4c(O)c(c5c(nc6cc(C)ccn65)c4c3C2=O)NC(=O)/C(C)=C\C=C\[C@H](C)[C@H](O)[C@@H](C)[C@@H](O)[C@@H](C)[C@H](OC(C)=O)[C@@H]1C` [Rifaximin, (2S,16Z,18E,20S,21S,22R,23R,24R,25S,26S,27S,28E)-5,6,21,23,25-pentahydroxy-27-methoxy-2,4,11,16,20,22,24,26-octamethyl-2,7-(epoxypentadeca-[1,11,13]trienimino)benzofuro[4,5-e]pyrido[1,2-a]-benzimida-zole-1,15(2H)-dione,25-acetate], for which the “solubility in organic solvents” value is on record as “soluble”.
